Laboratory results: patent EP0451791A2, “Long acting liposome compositions containing peptid drugs and method for their preparation” (HOECHST AKTIENGESELLSCHAFT, priority 1990, dated 1991)

Tested on: weiblicher Ratten
Assay: Cycle (oestrus) suppression in female rats after s.c. injection, weekly vaginal smear (Beispiel 2)
Assay type: in vivo
Conditions: HOE 013 solution 60 μg daily, liposomes single dose 3200 μg HOE 013
Description: 2 x 1 ml der Liposomen (entspr. einer Einmalgabe von 3200 µg HOE 013) aus Beispiel 1 werden subkutan weiblichen Ratten von ca. 200 g Körpergewicht injiziert. Als Kontrolle dient eine gleiche Testgruppe von Tieren, die nur Lösungsmittel (Kochsalzlösung) erhält (Placebo) und eine Gruppe von Tieren, die mit täglichen Gaben von LHRH-Antagonist-Lösung (60 µg) (in 5 %iger Mannitlösung) behandelt wird. Die Östrussuppression der Tiere wird durch wöchentlichen Östrusabstrich überprüft. Am Tag 35 wird die Konzentration von HOE 013 im Urin gemessen und die 24 h-Ausscheidung berechnet.
Die Ergebnisse (s. Tabelle 1) zeigen, daß die Tiere der Liposomengruppe im Gegensatz zu den beiden Kontrollgruppen nach 35 Tagen noch deutlich supprimiert sind. Die Exkretionsrate am Tag 35 (4,5 µg) belegt eine signifikante Ausscheidung des Antagonisten im Falle der Liposomenpräparation. Diese Exkretionsrate ist mit der Plasmakonzentration eng korreliert.

Measured: Ratten mit Zuyklussuppression/ Ratten pro Gruppe

Ac-D-Nal-p-Cl-D-Phe-D-Trp-Ser Tyr-D-Ser (α-L-Rha)-Leu-Arg-Pro-Azagly-NH₂ [HOE 013]
0/11: Tag 1 of vaginal cytology | Tag 7 of vaginal cytology | Tag 14 of vaginal cytology | Tag 21 of vaginal cytology | Tag 28 of vaginal cytology | Tag 35 of vaginal cytology
